In ChEMBL document CHEMBL1139848, “Structure-guided optimization of estrogen receptor binding affinity and antagonist potency of pyrazolopyrimidines with basic side chains” (J Med Chem, 2007) one finds Ki and IC50 data, which are given here for 8 compounds.

Molecules are shown by their SMILES.

Assay [1] concerns the target T1, Estrogen receptor (Homo sapiens, UniProt P03372).
T1 sequence (P03372 whole entry): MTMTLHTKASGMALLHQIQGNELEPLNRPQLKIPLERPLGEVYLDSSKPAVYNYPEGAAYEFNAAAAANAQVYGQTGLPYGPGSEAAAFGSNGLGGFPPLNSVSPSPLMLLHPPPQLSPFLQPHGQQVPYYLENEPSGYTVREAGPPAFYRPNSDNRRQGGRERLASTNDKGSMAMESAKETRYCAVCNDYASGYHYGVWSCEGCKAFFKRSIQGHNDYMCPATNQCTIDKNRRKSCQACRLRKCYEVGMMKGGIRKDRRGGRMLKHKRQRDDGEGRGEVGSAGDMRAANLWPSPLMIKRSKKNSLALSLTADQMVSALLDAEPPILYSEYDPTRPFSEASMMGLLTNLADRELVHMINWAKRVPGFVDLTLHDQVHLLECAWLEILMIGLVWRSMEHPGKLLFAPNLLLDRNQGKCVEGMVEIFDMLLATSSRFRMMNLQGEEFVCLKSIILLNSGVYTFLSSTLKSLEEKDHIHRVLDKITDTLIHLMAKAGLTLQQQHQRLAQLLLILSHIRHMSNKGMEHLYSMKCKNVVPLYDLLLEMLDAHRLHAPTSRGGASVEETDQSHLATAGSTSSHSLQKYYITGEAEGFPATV
Briefly: Binding affinity to ERalpha.

Assay [2] concerns the target T2, Estrogen receptor beta (Homo sapiens, UniProt Q92731). As to the kind of experiment: Binding affinity to ERbeta.
Assay [3] concerns the target T1, Estrogen receptor. Briefly: Antagonist potency at ERalpha expressed in human HEC1 cells by luciferase reporter gene assay. It counts as functional, cell-based, HEC-1. (A reporter such as luciferase makes a cellular process visible.)
Assay [4] concerns the target T2, Estrogen receptor beta. Briefly: Antagonist potency at ERbeta expressed in human HEC1 cells by luciferase reporter gene assay. It counts as functional, cell-based, HEC-1.

T2 sequence (Q92731 whole entry): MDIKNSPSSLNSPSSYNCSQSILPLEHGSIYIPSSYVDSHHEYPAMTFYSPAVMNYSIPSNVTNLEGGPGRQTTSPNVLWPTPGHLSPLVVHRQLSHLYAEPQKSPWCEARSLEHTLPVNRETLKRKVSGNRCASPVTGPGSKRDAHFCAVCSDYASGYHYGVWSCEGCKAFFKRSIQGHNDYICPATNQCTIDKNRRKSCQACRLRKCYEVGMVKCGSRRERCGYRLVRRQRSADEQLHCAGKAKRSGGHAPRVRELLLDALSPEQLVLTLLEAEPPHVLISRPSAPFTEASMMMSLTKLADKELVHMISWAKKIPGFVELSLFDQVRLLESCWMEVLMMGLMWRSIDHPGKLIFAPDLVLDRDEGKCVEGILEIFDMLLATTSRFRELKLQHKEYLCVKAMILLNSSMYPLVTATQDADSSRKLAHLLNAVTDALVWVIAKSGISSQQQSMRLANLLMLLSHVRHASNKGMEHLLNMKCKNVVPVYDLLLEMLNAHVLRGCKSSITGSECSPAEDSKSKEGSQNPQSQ

Take `Oc1ccc(-c2nn3cc(O)cnc3c2-c2ccc(O)cc2)cc1`: the Ki at Estrogen receptor [1] was 3.33 µM; at Estrogen receptor beta [2], 1.52 µM.

Consider `Oc1ccc(-c2nn3c(C(F)(F)F)cc(C(F)(F)F)nc3c2-c2ccccc2)cc1`, for which the Ki at Estrogen receptor [1] came to 0.051 µM; at Estrogen receptor beta [2], 0.122 µM.

`Oc1ccc(-c2c(-c3ccccc3)nn3c(C(F)(F)F)cc(C(F)(F)F)nc23)cc1`: the results for the inhibitory constant (Ki) on Estrogen receptor [1] and on Estrogen receptor beta [2] were 2.22 µM and 0.139 µM, respectively.

For the compound `Oc1ccc(-c2nn3c(C(F)(F)F)cc(C(F)(F)F)nc3c2-c2ccc(OCCN3CCCCC3)cc2)cc1`, the figures for the IC50 against Estrogen receptor [3] and against Estrogen receptor beta [4] were 0.09 µM and 0.04 µM, respectively. For the same compound, the figures for the Ki on Estrogen receptor [1] and on Estrogen receptor beta [2] were 0.007 µM and 0.071 µM, respectively.

Take `CN(C)CCOc1ccc(-c2c(-c3ccc(O)cc3)nn3c(C(F)(F)F)cc(C(F)(F)F)nc23)cc1`: the IC50 against Estrogen receptor [3] was 1 µM; against Estrogen receptor beta [4] it was 0.25 µM. In addition, the inhibition constant (Ki) turned out to be 0.047 µM on Estrogen receptor [1] and 0.178 µM at Estrogen receptor beta [2].

`CN(C)CCOc1ccc(-c2nn3c(C(F)(F)F)cc(C(F)(F)F)nc3c2-c2ccc(O)cc2)cc1`: the Ki at Estrogen receptor [1] came to 0.408 µM; on Estrogen receptor beta [2], 0.156 µM.

As for `Oc1ccc(-c2c(-c3ccc(OCCN4CCCCC4)cc3)nn3c(C(F)(F)F)cc(C(F)(F)F)nc23)cc1`, the inhibition constant Ki at Estrogen receptor [1] was found to be 0.266 µM; on Estrogen receptor beta [2], 0.192 µM.

Take `Oc1ccc(-c2nn3c(C(F)(F)F)cc(C(F)(F)F)nc3c2-c2ccc(O)cc2)cc1`: the results for the IC50 on Estrogen receptor [3] and at Estrogen receptor beta [4] were 6 µM and 0.6 µM, respectively. The Ki stood at 0.026 µM at Estrogen receptor [1] and 0.048 µM on Estrogen receptor beta [2].

By Ki is commonly meant a measure of affinity in units of concentration, obtained from inhibition or displacement. Read a low Ki as tighter binding. One may read the IC50 as the concentration at which inhibition is half-maximal.
